Test results as given in PubChem BioAssay (NCI).
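Briefly, cells in 96-well plates were exposed to five compound concentrations for 48 h, and endpoints were estimated by linear interpolation. Here, GI50 denotes the concentration required for 50% inhibition of growth. TGI denotes the concentration required for complete inhibition of growth.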

What was measured:
Assay in all cases: NCI tumour cell line growth inhibition, 48 h
SK-MEL-28 melanoma = system: SK-MEL-28 melanoma
MCF7 breast = system: MCF7 breast
A498 renal = system: A498 renal
IGROV1 ovarian = system: IGROV1 ovarian
ACHN renal = system: ACHN renal
DU-145 prostate = system: DU-145 prostate
RPMI-8226 leukemia = system: RPMI-8226 leukemia
OVCAR-5 ovarian = system: OVCAR-5 ovarian
OVCAR-3 ovarian = system: OVCAR-3 ovarian
NCI-H460 lung = system: NCI-H460 lung

Q: What does the source list for `CC(C)C[C@H](NC(=O)[C@@H](O)[C@H](N)Cc1ccccc1)C(=O)O`?
A: TGI (SK-MEL-28 melanoma): > 100 µM; TGI (MCF7 breast): > 100 µM; GI50 (A498 renal): > 100 µM; TGI (A498 renal): > 100 µM; TGI (IGROV1 ovarian): > 100 µM; TGI (ACHN renal): > 100 µM; TGI (DU-145 prostate): > 100 µM; TGI (RPMI-8226 leukemia): > 100 µM; TGI (OVCAR-5 ovarian): > 100 µM; TGI (OVCAR-3 ovarian): > 100 µM; TGI (NCI-H460 lung): > 100 µM

Q: For `COc1ccc(N=C2NN=C(c3c[nH]c4ccccc34)CS2)cc1OC`, which GI50 (SK-MEL-28 melanoma) is on record?
A: 15.3 µM

Q: And the TGI (SK-MEL-28 melanoma)?
A: > 90.4 µM

Q: And the GI50 (MCF7 breast)?
A: 5.21 µM

Q: What about the TGI (MCF7 breast) of the same compound?
A: > 75.5 µM

Q: And the GI50 (A498 renal)?
A: 4.43 µM

Q: And the TGI (A498 renal)?
A: > 61.3 µM

Q: And the GI50 (IGROV1 ovarian)?
A: 10.5 µM

Q: And the TGI (IGROV1 ovarian)?
A: > 100 µM

Q: And the GI50 (ACHN renal)?
A: 17.3 µM

Q: And the TGI (ACHN renal)?
A: > 100 µM

Q: And the GI50 (DU-145 prostate)?
A: 19.5 µM

Q: What about the TGI (DU-145 prostate) of the same compound?
A: > 87.7 µM

Q: And the GI50 (RPMI-8226 leukemia)?
A: 3.66 µM

Q: What about the TGI (RPMI-8226 leukemia) of the same compound?
A: > 29.6 µM

Q: And the GI50 (OVCAR-5 ovarian)?
A: > 70.6 µM

Q: What about the TGI (OVCAR-5 ovarian) of the same compound?
A: > 100 µM

Q: And the GI50 (OVCAR-3 ovarian)?
A: 2.87 µM

Q: What about the TGI (OVCAR-3 ovarian) of the same compound?
A: > 40.6 µM

Q: And the GI50 (NCI-H460 lung)?
A: 4.11 µM

Q: And the TGI (NCI-H460 lung)?
A: > 45.2 µM

Q: What does the source list for `C=C(CC1(CC(=C)c2ccc(C(=O)O)cc2)C(=O)N(C)C(=O)N(C)C1=O)c1ccc(C(=O)O)cc1`?
A: GI50 (SK-MEL-28 melanoma): > 100 µM; TGI (SK-MEL-28 melanoma): > 100 µM; GI50 (MCF7 breast): 73.9 µM; TGI (MCF7 breast): > 100 µM; GI50 (A498 renal): 53.2 µM; TGI (A498 renal): > 100 µM; GI50 (IGROV1 ovarian): 47.4 µM; TGI (IGROV1 ovarian): > 100 µM; GI50 (ACHN renal): > 100 µM; TGI (ACHN renal): > 100 µM; GI50 (DU-145 prostate): > 100 µM; TGI (DU-145 prostate): > 100 µM; GI50 (RPMI-8226 leukemia): 21.8 µM; TGI (RPMI-8226 leukemia): > 100 µM; GI50 (OVCAR-5 ovarian): 43.6 µM; TGI (OVCAR-5 ovarian): > 100 µM; GI50 (OVCAR-3 ovarian): 96.6 µM; TGI (OVCAR-3 ovarian): > 100 µM; GI50 (NCI-H460 lung): > 100 µM; TGI (NCI-H460 lung): > 100 µM

Q: Which results are given for `CCNC(=O)Oc1ccc(/C(=C(\C)c2ccc(Cl)cc2)c2ccc(OCCN3CCCCC3)cc2)cc1`?
A: GI50 (SK-MEL-28 melanoma): 1.83 µM; TGI (SK-MEL-28 melanoma): 3.73 µM; GI50 (MCF7 breast): 0.484 µM; TGI (MCF7 breast): 8.06 µM; GI50 (A498 renal): 13.7 µM; TGI (A498 renal): 27 µM; GI50 (IGROV1 ovarian): 4.13 µM; TGI (IGROV1 ovarian): 15.8 µM; GI50 (ACHN renal): 4.78 µM; TGI (ACHN renal): 16.7 µM; GI50 (DU-145 prostate): 10.9 µM; TGI (DU-145 prostate): 23.7 µM; GI50 (RPMI-8226 leukemia): 2.31 µM; TGI (RPMI-8226 leukemia): 5.27 µM; GI50 (OVCAR-5 ovarian): 11 µM; TGI (OVCAR-5 ovarian): 23.8 µM; GI50 (OVCAR-3 ovarian): 3.52 µM; TGI (OVCAR-3 ovarian): 13.4 µM; GI50 (NCI-H460 lung): 2.19 µM; TGI (NCI-H460 lung): 4.64 µM

Q: Which results are given for `CN(C)c1ccc(Sc2ccc3nc(N)nc(N)c3c2)cc1`?
A: GI50 (SK-MEL-28 melanoma): 2.76 µM; TGI (SK-MEL-28 melanoma): 15.5 µM; GI50 (MCF7 breast): 1.14 µM; TGI (MCF7 breast): 13.4 µM; GI50 (A498 renal): 3.34 µM; TGI (A498 renal): 14 µM; GI50 (IGROV1 ovarian): 0.67 µM; TGI (IGROV1 ovarian): 14.2 µM; GI50 (ACHN renal): 0.52 µM; TGI (ACHN renal): 7.39 µM; GI50 (DU-145 prostate): 0.793 µM; TGI (DU-145 prostate): 12.1 µM; GI50 (RPMI-8226 leukemia): 2.92 µM; TGI (RPMI-8226 leukemia): 10.9 µM; GI50 (OVCAR-5 ovarian): 1.16 µM; TGI (OVCAR-5 ovarian): 21 µM; GI50 (OVCAR-3 ovarian): 1.56 µM; TGI (OVCAR-3 ovarian): 4.59 µM; GI50 (NCI-H460 lung): 0.174 µM; TGI (NCI-H460 lung): 2.71 µM

Q: What does the source list for `C[C@H](NC(=O)CCC(F)(F)F)C(=O)N[C@@H]1C(=O)N(CCO)c2ncccc2-c2ccccc21`?
A: GI50 (SK-MEL-28 melanoma): > 100 µM; TGI (SK-MEL-28 melanoma): > 100 µM; GI50 (MCF7 breast): > 100 µM; TGI (MCF7 breast): > 100 µM; GI50 (A498 renal): > 100 µM; TGI (A498 renal): > 100 µM; GI50 (IGROV1 ovarian): > 100 µM; TGI (IGROV1 ovarian): > 100 µM; GI50 (ACHN renal): > 100 µM; TGI (ACHN renal): > 100 µM; GI50 (DU-145 prostate): > 100 µM; TGI (DU-145 prostate): > 100 µM; GI50 (RPMI-8226 leukemia): > 100 µM; TGI (RPMI-8226 leukemia): > 100 µM; GI50 (OVCAR-5 ovarian): > 100 µM; TGI (OVCAR-5 ovarian): > 100 µM; GI50 (OVCAR-3 ovarian): > 100 µM; TGI (OVCAR-3 ovarian): > 100 µM; GI50 (NCI-H460 lung): > 100 µM; TGI (NCI-H460 lung): > 100 µM

Q: For `COC(=O)Nc1nc2ccc(Sc3ccc(NC(=O)Nc4cc(C(F)(F)F)ccc4F)cc3)cc2[nH]1`, which GI50 (SK-MEL-28 melanoma) is on record?
A: 2.81 µM

Q: What about the TGI (SK-MEL-28 melanoma) of the same compound?
A: 16.5 µM

Q: What about the GI50 (MCF7 breast) of the same compound?
A: 0.988 µM

Q: And the TGI (MCF7 breast)?
A: 5.33 µM

Q: What about the GI50 (A498 renal) of the same compound?
A: 2.71 µM

Q: And the TGI (A498 renal)?
A: 10.7 µM

Q: And the GI50 (IGROV1 ovarian)?
A: 3.52 µM

Q: What about the TGI (IGROV1 ovarian) of the same compound?
A: 11.1 µM

Q: And the GI50 (ACHN renal)?
A: 3.58 µM

Q: What about the TGI (ACHN renal) of the same compound?
A: 10.2 µM

Q: And the GI50 (DU-145 prostate)?
A: 4.15 µM

Q: What about the TGI (DU-145 prostate) of the same compound?
A: 8.27 µM

Q: What about the GI50 (RPMI-8226 leukemia) of the same compound?
A: 7.14 µM

Q: What about the TGI (RPMI-8226 leukemia) of the same compound?
A: 24.1 µM

Q: And the GI50 (OVCAR-5 ovarian)?
A: 3.5 µM

Q: What about the TGI (OVCAR-5 ovarian) of the same compound?
A: 9.24 µM

Q: And the GI50 (OVCAR-3 ovarian)?
A: 3.05 µM

Q: And the TGI (OVCAR-3 ovarian)?
A: 6.26 µM

Q: What about the GI50 (NCI-H460 lung) of the same compound?
A: 2.73 µM

Q: And the TGI (NCI-H460 lung)?
A: 6.79 µM
